Six molecules from patent publication US20010029033A1, “Novel gene rno upregulated in leukemia cells by nitric oxide and DMSO” (priority 2000, published 2001) can be followed below.

Data set [1] deals with rno expression in HL-60 cells. The experiment in a line: RT-PCR analysis of rno expression in HL-60 cells treated with differentiating agents. The data set is classed as cell-based, human. To be noted: for rno expression (RT-PCR), sGC/cGMP pathway agents alone: ODQ 10 μM, 8-Br-cGMP 3 mM; for time course of rno induction (RT-PCR): 125 μM DETA-NO or 1.2% DMSO added once, 24, 48, 72 hr; for rno expression (RT-PCR): DETA-NO 125 μM, DMSO 1.2% (v/v), VD3 100 nM. On the procedure:
FIG. 4 is a […] showing the effect of differentiating agents on rno expression in HL-60 cells. For the upper panel, HL-60 cells were treated with DETA-NO, DMSO, or VD3 for 24 hours before analysis of rno expression by RT-PCR. Lane 1, no treatment control; Lane 2, DETA-NO; Lane 3, DMSO; Lane 4, VD3; Lane 5, water blank (no template); Lane 6, reverse transcriptase omitted from the reaction mixture; Lane 7, RT-PCR performed using RNA isolated from normal PMN (positive control). The positions of the size marker (MW) are indicated on the left. The positions of rno-1 and rno-3 are shown on the right. Referring to the lower panel, RT-PCR analysis of actin expression was used to control for the quality and integrity of the cDNA that was prepared from the various samples. Lane 1, no treatment control cells; Lane 2, cells treated with DETA-NO, Lane 3, cells treated with DMSO; Lane 4, cells treated with VD3; Lane 5, water blank (no template), Lane 6, RT-PCR performed using RNA isolated from normal PMN.
FIG. 5 illustrates the time course of rno induction in HL-60 cells. For the results of the upper panel, HL-60 cells were treated with 125 μM DETA-NO or 1.2% DMSO, and expression of rno was analyzed by RT-PCR at three different time points. MW, 100 bp DNA ladder; Lane 1, no-treatment control cells; Lane 2, cells treated with DETA-NO for 24 hr; Lane 3, cells treated with DETA-NO for 48 hr; Lane 4; cells treated with DETA-NO for 72 hr; Lane 5, cells treated with DMSO for 24 hr; Lane 6, cells treated with DMSO for 48 hr; Lane 7, cells treated with DMSO 72 hr; Lane 8, water blank (no template). The position of rno-1 is indicated on the left. For the results of the lower panel, RT-PCR analysis of actin expression was used to control for the quality and integrity of the cDNA that was prepared from the various samples. MW, 100 bp DNA ladder; Lane 1, no-treatment control cells; Lane 2, cells treated with DETA-NO for 24 hr; Lane 3, cells treated with DETA-NO for 48 hr; Lane 4; cells treated with DETA-NO for 72 hr; Lane 5, cells treated with DMO for 24 hr; Lane 6, cells treated with DMSO for 48 hr; Lane 7, cells treated with DMSO 72 hr. The position of actin is indicated on the left. DETA-NO upregulates rno within 24 hours and expression returns to baseline by 48 hours. DMSO also upregulates rno within 24 hours but expression persists through the entire 72 hr of exposure.
FIG. 6 illustrates the effect of cGMP on rno expression. In the upper pannel, HL-60 cells were treated with DETA-NO, 8Br-cGMP, ODQ, or ODQ and DETA-NO for 24 hours. Subsequently rno expression was analyzed by using RT-PCR. Lane 1, molecular mass standards (100 bp ladder); Lane 2, no-treatment control cells; Lane 3, DETA-NO; Lane 4, 8-Br-cGMP; Lane 5, ODQ; Lane 6, ODQ and DETA-NO; Lane 7, water blank (no cDNA template); Lane 8, reverse transcriptase omitted from one of the reaction mixtures. The position of rno-1 is indicated on the left. In the lower panel, RT-PCR analysis of actin expression was used to control for the quality and integrity of the cDNA that was prepared from the various samples. Lane 1,100 bp DNA ladder; Lane 2, no-treatment control; Lane 3, cells treated with DETA-NO; Lane 4, cells treated with 8Br-cGMP; Lane 5, cells treated with ODQ; Lane 6, cells treated with ODQ and DETA-NO. The position of actin is indicated on the left. Upregulation of rno by DETA-NO is cGMP-independent.
Referring to FIG. 4, RT-PCR was used to compare the effects of three differentiating agents on expression of rno. NO induces HL-60 cells to differentiate along the monocytic lineage. Magrinat, G et al. (1992) Blood, 80:1980-1986. DMSO is a granulocytic differentiation agent, while VD3 induces monocytic differentiation. Trayner, ID et al. (1998) Leuk Res., 22:537-547.
Referring to FIG. 4, both NO and DMSO induce expression of rno. To determine if the time-course of induction is similar, HL-60 cells were incubated with either DETA-NO or DMSO for 72 hr. […]

The test system of data set [2] is rno expression in HL-60 cells. The data set is described as follows: Northern analysis of rno expression in DETA-NO treated HL-60 cells. The data set is classed as cell-based, human. Conditions: DETA-NO 125 μM, 24 hr, DP-3A probe. The method, then:
FIG. 1 is a northern blot showing the induction of rno expression by NO. HL-60 cells were treated for 24 hr with DETA-NO (125 μM). Total cellular RNA was isolated and northern analysis was performed by using radiolabelled rno DP-3A as a probe as shown in the upper panel. […] The positions of the bands representing 28S and 18S ribosomal RNA are indicated on the left. Lane 1, RNA from control, untreated cells; Lane 2, RNA from DETA-NO treated cells.
The following two sets of cells were used for analysis of the effects NO on gene expression: control HL-60 cells incubated in media for 24 hours and HL-60 cells treated with 125 μM DETA-NO (a NO generating compound) for the same time period. Poly (A^+) RNA was prepared from the two sets of cells, and this material was used as template for the synthesis of double stranded cDNA. Following digestion with BglII, a set of primer/adapters was ligated to aliquots of each sample, and this cDNA was amplified by PCR to generate representations from the control and treated populations. By using the technique of RDA modified for cDNA, gene expression between the control and DETA-NO treated cells was compared. Lisitsyn, N et al. (1993) Science.259:946-951; Hubank, M & Schatz, D G (1994) Nucl Acids Res. 22:5640-5648; Kanai, N et al. (1999) Am J Hematol., 61:221-231. In the present study, two sets of subtraction/hybridizations were performed in parallel. […]

Data set [3] can be described thus: Half-life of NO release of DETA-NO. It counts as physicochemical. Conditions: by the time the 48 hr sample was harvested, from half-life of 20 hr. On the procedure: HL-60 cells were from ATCC (Rockville, Md.) and were cultured at 37° C. in a 5% CO2 humidified atmosphere at a density of 150,000 cells/ml. The culture medium consisted of RPMI-1640 supplemented with 10% fetal bovine serum and 1% Penicillin (10,000 U/mL)/Streptomycin (10 mg/mL). (Z)-1-[2-(2-Aminoethyl)-N-(2-ammonioethyl)amino]diazen-1-um-1,2-diolate] (DETA-NO) was used as a source of NO. DETA-NO belongs to the diazenium diolate class of NO donors and releases 2 molecules of NO per carrier moiety with a half-life of NO release of 20 hours. Keefer, L K et al. (1996) Methods in Enzymology.268:281-293. The effects of the following other differentiating agents on expression of rno were also investigated: dimethyl sulfoxide (DMSO); all-trans retinoic acid (ATRA); and vitamin D3 (VD3). DETA-NO, DMSO, ATRA, or VD3 were added once to HL-60 cells at the time of culture initiation at concentrations of 125 μM, 1.2% (v/v), 1 μM, and 100 nM, respectively. For studies of the role of the soluble guanylate cyclase (sGC)/cGMP signal transduction pathway in NO upregulation of rno, the sGC inhibitor 1H-[1,2,4]oxadiazolo[4,3-a]quinoxalin-1 -one (ODQ) and the cell permeable cGMP analogue 8-Br-cGMP at concentrations of 10 μM were used and 3 mM, respectively. Brunner, F et al. (1996) J Pharmacol Exp Ther. 277:48-53; Boss, GR.(1989) Proc Natl Acad Sci USA. 86:7174-7178. […]

On to `Nc1nc2c(nc(Br)n2[C@@H]2O[C@@H]3COP(=O)(O)O[C@H]3[C@H]2O)c(=O)[nH]1` [8-Br-9 cGMP], for which the “rno expression (RT-PCR), sGC/cGMP pathway agents alone” value in data set [1] (24 hours) is recorded as “did not induce rno expression”. For `CC1=C(/C=C/C(C)=C/C=C/C(C)=C/C(=O)O)C(C)(C)CCC1` [ATRA, all-trans retinoic acid], in data set [1] (ATRA 1 μM, even after 72 hr of exposure), the “rno expression (RT-PCR), data not shown” value was “no effect on rno expression”. `NCCN(CCN)/[N+]([O-])=N/O` [DETA-NO]: the “rno expression (northern blot)” value in data set [2] was “upregulates rno expression”. The “decrease of functional activity of the reagent” value in data set [3] is “more than 75%”. Besides, in data set [1], the “time course of rno induction (RT-PCR)” value is “evident at 24 hr and returned to baseline by 48 hr”. The “rno expression (RT-PCR)” value in data set [1] (24 hours) is “upregulated”. With `C[S+](C)[O-]` [DMSO, dimethyl sulfoxide], the “time course of rno induction (RT-PCR)” value in data set [1] was “induced expression of rno within 24 hr, however, expression persisted through the entire 72 hr observation period”. Moreover, the “rno expression (RT-PCR)” value in data set [1] (24 hours) was “upregulated”.

As to `O=c1onc2cnc3ccccc3n12` [ODQ, 1H-[1,2,4]oxadiazolo[4,3-a]quinoxalin-1-one], in data set [1] (24 hours), the “rno expression (RT-PCR), sGC/cGMP pathway agents alone” value is listed as “did not upregulate rno expression”. Further, the “effect of sGC inhibitor on induction of rno by DETA-NO (RT-PCR)” value in data set [1] (ODQ and DETA-NO in combination, 24 hours) is recorded as “did not prevent the induction of rno by DETA-NO”.

Consider `C=C1CC[C@H](O)C/C1=C/C=C1\CCC[C@]2(C)[C@@H]([C@H](C)CCCC(C)C)CC[C@@H]12` [VD3, vitamin D3], for which the “rno expression (RT-PCR)” value in data set [1] (24 hours) is given as “not by VD3”.
